Data set [1] concerns the target T1, human mGluR5d (Homo sapiens, UniProt P41594).
T1 construct: expressed in transfected cells; The separate IP3 assay names GHEK cells
Kind of data set: FLIPR assay: mobilization of intracellular calcium in cells expressing human mGluR5d. It is filed as cell-based. The note with it: antagonism of agonist-induced [Ca2+]i response, read-out: FLIPR hmGluR5d. From the text:
Functional Assessment of mGluR5 Antagonism in Cell Lines Expressing mGluR5D
The properties of the compounds of the invention can be analyzed using standard assays for pharmacological activity. Examples of glutamate receptor assays are well known in the alt as described in for example Aramori et al., Neuron 8:757 (1992), Tanabe et al., Neuron 8:169 (1992), Miller et al., J. Neuroscience 15: 6103 (1995), Balazs, et al., J. Neurochemistry 69:151 (1997). The methodology described in these publications is incorporated herein by reference. Conveniently, the compounds of the invention can be studied by means of an assay (FLIPR) that measures the mobilization of intracellular calcium, [Ca^2+]i in cells expressing mGluR5 or another assay (IP3) that measures inositol phosphate turnover.
Cells expressing human mGluR5d as described in WO97/05252 cultured in a mixture of high glucose DMEM with Glutamax (31966-021)(500 mL), 10% dialyzed fetal bovine serum (Hyclone #SH30079.03)(56 mL), 200 μg/in L Hygromycin B (Invitrogen 45-0430, 50 mg/mL)(2.2 mL), 200 μg/mL Zeocin (Invitrogen #R250-01; 100 mg/mL)(1.1 mL) are seeded at a density of 100,000 cells per well on collagen coated clear bottom 96-well plates with black sides and cells were allowed to adhere over night before experiments. All assays are done in a buffer containing 146 mM NaCl, 5 mM KCl, 1 mM MgCl2, 1 mM CaCl2, 20 mM HEPES, 1 mg/mL glucose and 1 mg/mL BSA Fraction IV (pH 7.4). Cell cultures in the 96-well plates are loaded for 60 minutes in the above mentioned buffer containing 6 μM of the acetoxymethyl ester form of the fluorescent calcium indicator fluo-3 (Molecular Probes, Eugene, Oreg.) in 0.025% pluronic acid (a proprietary, non-ionic surfactant polyol—CAS Number 9003-11-6). Following the loading period the fluo-3 buffer is removed and replaced with fresh assay buffer. FLIPR experiments are done using a laser setting of 0.700 W and a 0.4 second CCD camera shutter speed with excitation and emission wavelengths of 488 nm and 562 nm, respectively. Each experiment is initiated with 160 μl of buffer present in each well of the cell plate. A 40 μl addition from the antagonist plate was followed by a 50 μL addition from the agonist plate. A 30 minutes, in dark at 25° C., interval separates the antagonist and agonist additions. The fluorescence signal is sampled 50 times at 1-second intervals followed by 3 samples at 5-second intervals immediately after each of the two additions. Responses are measured as the difference between the peak heights of the response to agonist less the background fluorescence within the sample period. IC50 determinations are made using a […] least squares fitting program.

A short description of data set [2]: Determination of brain to plasma ratio in rat. It is filed as in vivo. Conditions: brain and plasma, female Sprague Dawley rats, drug in brain over drug in plasma, read-out: Brain/Plasma Ratio of compound in Rat. The procedure:
Brain to plasma ratios are estimated in female Sprague Dawley rats. The compound is dissolved in water or another appropriate vehicle. For determination of brain to plasma ratio the compound is administrated as a subcutaneous, or an intravenous bolus injection, or an intravenous infusion, or an oral administration. At a predetermined time point after the administration a blood sample is taken with cardiac puncture. The rat is terminated by cutting the heart open, and the brain is immediately retained. The blood samples are collected in heparinized tubes and centrifuged within 30 minutes, in order to separate the plasma from the blood cells. The plasma is transferred to 96-well plates and stored at −20° C. until analysis. The brains are divided in halt and each half is placed in a pre-tarred tube and stored at −20° C. until analysis. Prior to the analysis, the brain samples are thawed and 3 mL/g brain tissue of distilled water is added to the tubes. The brain samples are sonicated in an ice bath until the samples are homogenized. Both brain and plasma samples are precipitated with acetonitrile. After centrifugation, the supernatant is diluted with 0.2% formic acid. Analysis is performed on a short reversed-phase HPLC column with rapid gradient elution and MSMS detection using a triple quadrupole instrument with electrospray ionisation and Selected Reaction Monitoring (SRM) acquisition. Liquid-liquid extraction may be used as an alternative sample clean-up. The samples are extracted, by shaking, to an organic solvent after addition of a suitable buffer. An aliquot of the organic layer is transferred to a new vial and evaporated to dryness under a stream of nitrogen. After reconstitution of the residuals the samples are ready for injection onto the HPLC column.

T1 sequence (P41594 21-942 isoform P41594-3 limits assumed): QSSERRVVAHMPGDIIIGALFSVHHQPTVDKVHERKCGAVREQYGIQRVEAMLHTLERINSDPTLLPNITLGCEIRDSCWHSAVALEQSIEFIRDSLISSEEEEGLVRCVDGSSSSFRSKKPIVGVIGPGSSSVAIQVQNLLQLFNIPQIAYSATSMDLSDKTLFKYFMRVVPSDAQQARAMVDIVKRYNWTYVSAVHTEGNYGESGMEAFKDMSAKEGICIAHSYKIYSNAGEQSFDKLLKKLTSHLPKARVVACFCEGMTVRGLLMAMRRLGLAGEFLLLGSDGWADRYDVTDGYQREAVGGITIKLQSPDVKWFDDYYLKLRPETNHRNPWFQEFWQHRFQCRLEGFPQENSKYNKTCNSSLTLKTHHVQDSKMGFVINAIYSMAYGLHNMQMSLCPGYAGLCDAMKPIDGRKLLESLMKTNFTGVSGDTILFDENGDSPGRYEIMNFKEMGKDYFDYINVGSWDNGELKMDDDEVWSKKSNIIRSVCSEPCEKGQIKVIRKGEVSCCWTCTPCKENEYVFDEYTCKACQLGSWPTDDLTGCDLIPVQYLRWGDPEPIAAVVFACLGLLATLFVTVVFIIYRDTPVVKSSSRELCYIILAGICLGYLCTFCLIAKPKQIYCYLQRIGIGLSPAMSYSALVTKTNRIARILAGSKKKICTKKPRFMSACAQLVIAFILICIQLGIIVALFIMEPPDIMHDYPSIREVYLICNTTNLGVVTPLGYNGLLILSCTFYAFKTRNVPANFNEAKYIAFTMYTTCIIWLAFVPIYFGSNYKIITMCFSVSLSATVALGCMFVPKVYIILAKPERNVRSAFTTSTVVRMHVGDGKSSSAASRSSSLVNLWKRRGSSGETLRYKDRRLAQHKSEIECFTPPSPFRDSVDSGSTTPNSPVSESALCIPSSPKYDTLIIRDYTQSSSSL

Turning to `C[C@@H](Oc1nnc(-c2ccc(C(N)=O)cc2)n1C)c1noc(-c2cccc(Cl)c2)n1` [Example 10.1, 4-(5-{(1R)-1-[5-(3-Chlorophenyl)-1,2,4-oxadiazol-3-yl]ethoxy}-4-methyl-4H-1,2,4-triazol-3-yl)benzamide], in data set [1], the IC50 stood at 8 nM. Moreover, the Kp in data set [2] amounted to 0.03.
Regarding `C[C@@H](Oc1nnc(-c2ccc(C(N)=O)cc2)n1C)c1nnn(-c2cccc(Cl)c2)n1` [Example 10.2, 4-(5-{(1R)-1-[2-(3-Chlorophenyl)-2H-tetrazol-5-yl]ethoxy}-4-methyl-4H-1,2,4-triazol-3-yl)benzamide], the IC50 in data set [1] amounted to 6 nM. In addition, the Kp in data set [2] is 0.01.
On the same counts, the results for `C[C@@H](Oc1nnc(-c2ccc(C(N)=O)cn2)n1C)c1nnn(-c2cccc(Cl)c2)n1` [Example 10.3, 6-(5-{(1R)-1-[2-(3-Chlorophenyl)-2H-tetrazol-5-yl]ethoxy}-4-methyl-4H-1,2,4-triazol-3-yl)nicotinamide] are 5 nM and 0.075.
On the same counts, the results for `Cc1cccc(-n2nnc([C@@H](C)Oc3nnc(-c4ccc(C(N)=O)cn4)n3C)n2)c1` [Example 10.4, 6-(4-Methyl-5-{(1R)-1-[2-(3-methylphenyl)-2H-tetrazol-5-yl]ethoxy}-4H-1,2,4-triazol-3-yl)nicotinamide] are 6 nM and 0.09.
